In ChEMBL document CHEMBL1201862, “PubChem BioAssay data set” (2004):
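Assay format: 96-well plates, 48-hour exposure. The concentration for 50% growth inhibition is given as GI50.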 Activity calls are given as the source filed them. No stated cut-off is given here; in the data, active = GI50 up to about 1.1 µM and inactive = higher.

Columns and labels:
Test in all cases: NCI anticancer screen, dose series, 48 h
HOP-18 = system: HOP-18
M19-MEL = system: M19-MEL
DMS-273 = system: DMS-273
KM-20L2 = system: KM-20L2
XF498 = system: XF498
DMS-114 = system: DMS-114
RXF 631 = system: RXF 631
BT-549 = system: BT-549
MDA-N = system: MDA-N

Row | Structure (SMILES) | GI50 (HOP-18) | GI50 (M19-MEL) | GI50 (DMS-273) | GI50 (KM-20L2) | GI50 (XF498) | GI50 (DMS-114) | GI50 (RXF 631) | GI50 (BT-549) | GI50 (MDA-N)
1 | N#CC(C(=O)/C(=N/NC(=O)c1ccccc1O)C(C#N)c1ccc(Br)cc1)c1ccc(Br)cc1 (stereo unspecified) | 8.41 µM (inactive) | 11.7 µM (inactive) | 13.4 µM (inactive) | 15.4 µM (inactive) | 13.7 µM (inactive) | 15.7 µM (inactive) | 14.1 µM (inactive) |  | 
2 | CCOC(=N)CC(=O)NC(C)c1ccccc1 (stereo unspecified) | > 100 µM (inactive) | > 100 µM (inactive) | > 100 µM (inactive) | > 100 µM (inactive) | > 100 µM (inactive) |  | > 100 µM (inactive) |  | 
3 | CCc1ccccc1NC(=O)/C(=N/O)C(C)=O | > 100 µM (inactive) | > 100 µM (inactive) | > 100 µM (inactive) | > 100 µM (inactive) | > 100 µM (inactive) | > 100 µM (inactive) | > 100 µM (inactive) |  | 
4 | COc1ccccc1NC(=O)CC(=O)N1N=C(c2ccccc2)C(/N=N/c2ccc(Cl)cc2)C1=O (stereo unspecified) |  | 57.1 µM (inactive) | 34.8 µM (inactive) | 71.8 µM (inactive) | 38.5 µM (inactive) | 70.1 µM (inactive) | 44.1 µM (inactive) |  | 
5 | CC1(C)N=C(c2ccccn2)C(c2ccccn2)=NC1(C)C |  | > 100 µM (inactive) | > 100 µM (inactive) | > 100 µM (inactive) | > 100 µM (inactive) | > 100 µM (inactive) | > 100 µM (inactive) |  | 
6 | COc1cccc2nc3c(C(=O)NCCN(C)C)cccc3nc12 | 29.5 µM (inactive) | 8.07 µM (inactive) | 7.36 µM (inactive) | 8.38 µM (inactive) | 0.986 µM (active) | 8.07 µM (inactive) | 10.8 µM (inactive) |  | 
7 | O=C(Cc1nc2ccccc2s1)C(=O)Nc1cccc(Cl)c1 |  | > 100 µM (inactive) | > 100 µM (inactive) | > 100 µM (inactive) | > 100 µM (inactive) | > 100 µM (inactive) | > 100 µM (inactive) |  | 
8 | CC1CCCP(=O)(c2ccccc2)CCC1 (stereo unspecified) | 69 µM (inactive) | > 100 µM (inactive) | > 100 µM (inactive) | > 100 µM (inactive) | > 100 µM (inactive) | > 100 µM (inactive) | > 100 µM (inactive) |  | 
9 | O=S1(=O)CCC2=CC(C(F)(F)F)=CC(C(F)(F)F)=CN21 | 3.35 µM (inactive) | 1.41 µM (inactive) | 0.767 µM (active) | 2.11 µM (inactive) | 1.79 µM (inactive) | 1.37 µM (inactive) | 1.95 µM (inactive) | 2.43 µM (inactive) | 0.792 µM (active)
10 | CCOC(=N)CC(=O)Nc1cccc(Cl)c1 |  | > 100 µM (inactive) | > 100 µM (inactive) | > 100 µM (inactive) | > 100 µM (inactive) |  | > 100 µM (inactive) |  | 
11 | CCOC(=O)/C(C(C)=O)=C1/N[C@H](C(=O)OCC)CS1 | > 100 µM (inactive) | > 100 µM (inactive) |  | > 100 µM (inactive) | > 100 µM (inactive) |  | > 100 µM (inactive) |  | 
